From ChEMBL document CHEMBL3352819, “Structure-based optimization and biological evaluation of trisubstituted pyrazole as a core structure of potent ROS1 kinase inhibitors” (Bioorg Med Chem, 2014)
Values belong to the molecule of their own block, whether it stands above or below them.

Key:
[1] = target: Proto-oncogene tyrosine-protein kinase ROS (Homo sapiens, UniProt P08922); experiment: Inhibition of ROS1 (unknown origin) assessed as remaining activity
[2] = target: Non-receptor tyrosine-protein kinase TNK1 (Homo sapiens) (UniProt Q13470); experiment: Inhibition of TNK1 (unknown origin) assessed as residual activity at 10 uM relative to control
[3] = target: Tyrosine-protein kinase HCK (Homo sapiens) (UniProt P08631); experiment: Inhibition of HCK (unknown origin) assessed as residual activity at 10 uM relative to control
[4] = system: Serine/threonine-protein kinase B-raf (Homo sapiens), P15056 [V600E]; experiment: Inhibition of BRAF V600E mutant (unknown origin) assessed as residual activity at 10 uM relative to control
[5] = target: Serine/threonine-protein kinase PLK4 (Homo sapiens) (UniProt O00444); experiment: Inhibition of PLK4 (unknown origin) assessed as residual activity at 10 uM relative to control
[6] = target: Non-receptor tyrosine-protein kinase TYK2 (Homo sapiens) (UniProt P29597); experiment: Inhibition of TYK2 JH1 domain catalytic (unknown origin) assessed as residual activity at 10 uM relative to control
[7] = target: Phosphatidylinositol 4-phosphate 3-kinase C2 domain-containing subunit beta (Homo sapiens) (UniProt O00750); experiment: Inhibition of PIK3C2B (unknown origin) assessed as residual activity at 10 uM relative to control
[8] = target: ALK tyrosine kinase receptor (Homo sapiens) (UniProt Q9UM73); experiment: Inhibition of ALK (unknown origin) assessed as residual activity at 20 uM relative to control
[9] = target: BMP-2-inducible protein kinase (Homo sapiens) (UniProt Q9NSY1); experiment: Inhibition of BIKE (unknown origin) assessed as residual activity at 10 uM relative to control
[10] = target: Phosphatidylinositol 4,5-bisphosphate 3-kinase catalytic subunit delta isoform (Homo sapiens) (UniProt O00329); experiment: Inhibition of PIK3CD (unknown origin) assessed as residual activity at 10 uM relative to control
[11] = system: Receptor-type tyrosine-protein kinase FLT3 (Homo sapiens), P36888 [N841I]; experiment: Inhibition of FLT3 N841I mutant (unknown origin) assessed as residual activity at 10 uM relative to control
[12] = target: Proto-oncogene tyrosine-protein kinase Src (Homo sapiens) (UniProt P12931); experiment: Inhibition of SRC (unknown origin) assessed as residual activity at 10 uM relative to control
[13] = target: Phosphatidylinositol 4,5-bisphosphate 3-kinase catalytic subunit beta isoform (Homo sapiens) (UniProt P42338); experiment: Inhibition of PIK3CB (unknown origin) assessed as residual activity at 10 uM relative to control
[14] = target: Phosphatidylinositol 4,5-bisphosphate 3-kinase catalytic subunit alpha isoform (Homo sapiens) (UniProt P42336); experiment: Inhibition of PIK3CA (unknown origin) assessed as residual activity at 10 uM relative to control
[15] = target: Serine/threonine-protein kinase RIO2 (Homo sapiens) (UniProt Q9BVS4); experiment: Inhibition of RIOK2 (unknown origin) assessed as residual activity at 10 uM relative to control
[16] = target: Tyrosine-protein kinase TXK (Homo sapiens) (UniProt P42681); experiment: Inhibition of TXK (unknown origin) assessed as residual activity at 10 uM relative to control
[17] = target: Receptor-type tyrosine-protein kinase FLT3 (Homo sapiens) (UniProt P36888); experiment: Inhibition of FLT3 (unknown origin) assessed as residual activity at 10 uM relative to control
[18] = target: Leukocyte tyrosine kinase receptor (Homo sapiens) (UniProt P29376); experiment: Inhibition of LTK (unknown origin) assessed as residual activity at 10 uM relative to control
[19] = system: Phosphatidylinositol 4,5-bisphosphate 3-kinase catalytic subunit alpha isoform (Homo sapiens), P42336 [E542K]; experiment: Inhibition of PIK3CA E542K mutant (unknown origin) assessed as residual activity at 10 uM relative to control
[20] = target: Atypical kinase COQ8A, mitochondrial (Homo sapiens) (UniProt Q8NI60); experiment: Inhibition of ADCK3 (unknown origin) assessed as residual activity at 10 uM relative to control
[21] = organism: Homo sapiens; experiment: Inhibition of ULK (unknown origin) assessed as residual activity at 10 uM relative to control
[22] = target: Mitogen-activated protein kinase kinase kinase 20 (Homo sapiens) (UniProt Q9NYL2); experiment: Inhibition of ZAK (unknown origin) assessed as residual activity at 10 uM relative to control
[23] = target: Tyrosine-protein kinase JAK2 (Homo sapiens) (UniProt O60674); experiment: Inhibition of JAK2 (unknown origin) assessed as residual activity at 10 uM relative to control
[24] = target: Hepatocyte growth factor receptor (Homo sapiens) (UniProt P08581); experiment: Inhibition of c-MET (unknown origin) assessed as residual activity at 20 uM relative to control
[25] = target: Serine/threonine-protein kinase B-raf (Homo sapiens) (UniProt P15056); experiment: Inhibition of BRAF (unknown origin) assessed as residual activity at 10 uM relative to control
[26] = target: Aurora kinase A (Homo sapiens) (UniProt O14965); experiment: Inhibition of aurora A kinase (unknown origin) assessed as residual activity at 10 uM relative to control
[27] = target: Tyrosine-protein kinase Blk (Homo sapiens) (UniProt P51451); experiment: Inhibition of BLK (unknown origin) assessed as residual activity at 10 uM relative to control
[28] = target: AP2-associated protein kinase 1 (Homo sapiens) (UniProt Q2M2I8); experiment: Inhibition of AAK1 (unknown origin) assessed as residual activity at 10 uM relative to control
[29] = target: Mast/stem cell growth factor receptor Kit (Homo sapiens) (UniProt P10721); experiment: Inhibition of KIT (unknown origin) assessed as residual activity at 10 uM relative to control
[30] = target: Ephrin type-B receptor 6 (Homo sapiens) (UniProt O15197); experiment: Inhibition of EPHB6 (unknown origin) assessed as residual activity at 10 uM relative to control

Sequence of Proto-oncogene tyrosine-protein kinase ROS (P08922 whole entry): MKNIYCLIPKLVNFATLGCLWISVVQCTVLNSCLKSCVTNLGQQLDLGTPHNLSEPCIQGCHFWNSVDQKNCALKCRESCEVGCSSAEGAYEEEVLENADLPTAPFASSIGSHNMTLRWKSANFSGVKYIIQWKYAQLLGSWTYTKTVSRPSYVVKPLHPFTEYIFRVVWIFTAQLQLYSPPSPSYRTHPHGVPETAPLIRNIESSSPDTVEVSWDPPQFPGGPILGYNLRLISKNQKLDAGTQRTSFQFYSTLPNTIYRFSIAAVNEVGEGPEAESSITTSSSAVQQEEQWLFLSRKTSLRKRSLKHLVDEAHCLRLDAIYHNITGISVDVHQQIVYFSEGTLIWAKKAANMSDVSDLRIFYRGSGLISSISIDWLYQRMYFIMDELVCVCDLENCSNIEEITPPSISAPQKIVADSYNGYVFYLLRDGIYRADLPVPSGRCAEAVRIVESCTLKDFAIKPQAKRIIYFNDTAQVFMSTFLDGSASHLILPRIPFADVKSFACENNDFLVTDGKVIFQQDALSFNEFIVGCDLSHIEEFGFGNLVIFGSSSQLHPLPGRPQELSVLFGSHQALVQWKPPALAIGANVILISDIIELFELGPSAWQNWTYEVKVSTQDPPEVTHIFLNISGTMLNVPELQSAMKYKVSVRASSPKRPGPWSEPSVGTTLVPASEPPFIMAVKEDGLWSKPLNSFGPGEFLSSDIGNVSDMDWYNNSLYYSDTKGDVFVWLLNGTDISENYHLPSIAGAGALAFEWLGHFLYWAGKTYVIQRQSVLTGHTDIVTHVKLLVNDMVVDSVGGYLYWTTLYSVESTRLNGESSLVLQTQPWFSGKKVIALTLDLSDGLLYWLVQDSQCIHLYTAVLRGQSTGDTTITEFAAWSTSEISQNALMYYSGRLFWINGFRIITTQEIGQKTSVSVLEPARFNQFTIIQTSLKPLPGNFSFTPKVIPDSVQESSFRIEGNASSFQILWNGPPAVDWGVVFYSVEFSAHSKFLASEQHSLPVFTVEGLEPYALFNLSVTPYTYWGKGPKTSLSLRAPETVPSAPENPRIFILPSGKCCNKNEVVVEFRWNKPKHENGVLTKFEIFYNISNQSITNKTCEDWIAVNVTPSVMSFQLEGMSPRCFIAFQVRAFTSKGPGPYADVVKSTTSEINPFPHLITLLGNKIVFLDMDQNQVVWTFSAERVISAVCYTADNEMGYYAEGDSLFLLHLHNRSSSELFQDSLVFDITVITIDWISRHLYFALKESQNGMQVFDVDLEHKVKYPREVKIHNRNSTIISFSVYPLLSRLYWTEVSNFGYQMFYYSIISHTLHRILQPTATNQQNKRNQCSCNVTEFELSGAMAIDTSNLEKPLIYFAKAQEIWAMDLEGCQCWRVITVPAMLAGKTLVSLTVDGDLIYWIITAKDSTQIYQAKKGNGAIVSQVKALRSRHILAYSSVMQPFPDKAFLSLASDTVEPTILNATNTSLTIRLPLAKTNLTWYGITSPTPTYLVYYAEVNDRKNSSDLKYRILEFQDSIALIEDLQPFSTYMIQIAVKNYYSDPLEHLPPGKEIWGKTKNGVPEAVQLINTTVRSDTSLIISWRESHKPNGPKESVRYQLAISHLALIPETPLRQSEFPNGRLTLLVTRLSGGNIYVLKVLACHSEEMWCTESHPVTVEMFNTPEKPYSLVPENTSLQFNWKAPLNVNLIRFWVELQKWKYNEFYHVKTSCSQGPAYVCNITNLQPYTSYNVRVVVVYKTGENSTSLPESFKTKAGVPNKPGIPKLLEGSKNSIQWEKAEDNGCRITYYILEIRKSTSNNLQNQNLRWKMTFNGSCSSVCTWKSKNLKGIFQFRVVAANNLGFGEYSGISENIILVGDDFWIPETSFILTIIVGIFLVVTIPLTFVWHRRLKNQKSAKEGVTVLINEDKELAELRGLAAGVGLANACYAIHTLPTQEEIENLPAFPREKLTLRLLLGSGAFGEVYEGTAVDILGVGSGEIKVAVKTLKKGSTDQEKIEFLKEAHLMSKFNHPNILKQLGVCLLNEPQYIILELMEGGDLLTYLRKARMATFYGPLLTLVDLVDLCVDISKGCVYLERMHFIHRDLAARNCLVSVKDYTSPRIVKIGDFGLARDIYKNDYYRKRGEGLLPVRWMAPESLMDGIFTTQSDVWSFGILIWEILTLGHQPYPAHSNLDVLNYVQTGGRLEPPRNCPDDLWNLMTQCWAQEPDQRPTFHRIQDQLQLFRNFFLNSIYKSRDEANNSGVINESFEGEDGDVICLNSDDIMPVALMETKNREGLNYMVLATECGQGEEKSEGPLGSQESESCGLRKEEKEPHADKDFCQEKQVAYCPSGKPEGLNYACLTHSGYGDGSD
Sequence of Serine/threonine-protein kinase RIO2 (Homo sapiens) (Q9BVS4 whole entry, looked up): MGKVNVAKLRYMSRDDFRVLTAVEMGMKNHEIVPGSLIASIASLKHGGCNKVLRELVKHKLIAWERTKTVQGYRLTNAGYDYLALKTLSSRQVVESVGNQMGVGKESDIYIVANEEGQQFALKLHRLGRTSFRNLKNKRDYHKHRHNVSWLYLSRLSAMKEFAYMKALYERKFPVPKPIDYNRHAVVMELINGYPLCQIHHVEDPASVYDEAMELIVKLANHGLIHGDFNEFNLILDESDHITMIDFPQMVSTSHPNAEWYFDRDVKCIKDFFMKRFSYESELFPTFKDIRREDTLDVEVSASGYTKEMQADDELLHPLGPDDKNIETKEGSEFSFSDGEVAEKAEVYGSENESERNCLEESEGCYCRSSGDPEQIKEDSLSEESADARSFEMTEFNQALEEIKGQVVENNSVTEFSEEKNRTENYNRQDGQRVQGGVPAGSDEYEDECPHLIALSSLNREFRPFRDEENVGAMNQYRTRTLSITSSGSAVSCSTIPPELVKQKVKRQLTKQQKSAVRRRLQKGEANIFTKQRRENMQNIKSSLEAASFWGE
Sequence of Serine/threonine-protein kinase B-raf (Homo sapiens) (P15056 whole entry): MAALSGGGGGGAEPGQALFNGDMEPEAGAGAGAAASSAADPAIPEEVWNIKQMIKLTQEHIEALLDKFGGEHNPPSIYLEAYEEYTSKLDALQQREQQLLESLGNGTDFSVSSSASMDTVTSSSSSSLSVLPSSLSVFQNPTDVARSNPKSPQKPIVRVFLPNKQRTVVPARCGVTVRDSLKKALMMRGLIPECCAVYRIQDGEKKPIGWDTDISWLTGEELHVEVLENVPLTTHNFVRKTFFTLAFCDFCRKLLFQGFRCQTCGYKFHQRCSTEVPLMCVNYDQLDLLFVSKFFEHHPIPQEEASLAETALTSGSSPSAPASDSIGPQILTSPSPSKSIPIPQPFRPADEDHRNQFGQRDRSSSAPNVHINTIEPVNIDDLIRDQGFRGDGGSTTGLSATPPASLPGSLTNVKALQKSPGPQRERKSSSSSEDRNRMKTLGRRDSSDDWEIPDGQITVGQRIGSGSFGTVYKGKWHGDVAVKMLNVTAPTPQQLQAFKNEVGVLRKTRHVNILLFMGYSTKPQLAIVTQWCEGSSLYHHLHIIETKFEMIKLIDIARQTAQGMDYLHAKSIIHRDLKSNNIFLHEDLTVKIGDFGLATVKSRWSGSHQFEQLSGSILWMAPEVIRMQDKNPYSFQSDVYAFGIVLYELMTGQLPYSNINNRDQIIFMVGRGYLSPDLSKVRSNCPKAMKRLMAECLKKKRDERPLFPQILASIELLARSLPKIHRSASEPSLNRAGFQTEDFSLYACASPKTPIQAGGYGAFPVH
Sequence of Phosphatidylinositol 4,5-bisphosphate 3-kinase catalytic subunit alpha isoform (Homo sapiens), P42336 [E542K] (P42336 whole entry E542K, canonical isoform): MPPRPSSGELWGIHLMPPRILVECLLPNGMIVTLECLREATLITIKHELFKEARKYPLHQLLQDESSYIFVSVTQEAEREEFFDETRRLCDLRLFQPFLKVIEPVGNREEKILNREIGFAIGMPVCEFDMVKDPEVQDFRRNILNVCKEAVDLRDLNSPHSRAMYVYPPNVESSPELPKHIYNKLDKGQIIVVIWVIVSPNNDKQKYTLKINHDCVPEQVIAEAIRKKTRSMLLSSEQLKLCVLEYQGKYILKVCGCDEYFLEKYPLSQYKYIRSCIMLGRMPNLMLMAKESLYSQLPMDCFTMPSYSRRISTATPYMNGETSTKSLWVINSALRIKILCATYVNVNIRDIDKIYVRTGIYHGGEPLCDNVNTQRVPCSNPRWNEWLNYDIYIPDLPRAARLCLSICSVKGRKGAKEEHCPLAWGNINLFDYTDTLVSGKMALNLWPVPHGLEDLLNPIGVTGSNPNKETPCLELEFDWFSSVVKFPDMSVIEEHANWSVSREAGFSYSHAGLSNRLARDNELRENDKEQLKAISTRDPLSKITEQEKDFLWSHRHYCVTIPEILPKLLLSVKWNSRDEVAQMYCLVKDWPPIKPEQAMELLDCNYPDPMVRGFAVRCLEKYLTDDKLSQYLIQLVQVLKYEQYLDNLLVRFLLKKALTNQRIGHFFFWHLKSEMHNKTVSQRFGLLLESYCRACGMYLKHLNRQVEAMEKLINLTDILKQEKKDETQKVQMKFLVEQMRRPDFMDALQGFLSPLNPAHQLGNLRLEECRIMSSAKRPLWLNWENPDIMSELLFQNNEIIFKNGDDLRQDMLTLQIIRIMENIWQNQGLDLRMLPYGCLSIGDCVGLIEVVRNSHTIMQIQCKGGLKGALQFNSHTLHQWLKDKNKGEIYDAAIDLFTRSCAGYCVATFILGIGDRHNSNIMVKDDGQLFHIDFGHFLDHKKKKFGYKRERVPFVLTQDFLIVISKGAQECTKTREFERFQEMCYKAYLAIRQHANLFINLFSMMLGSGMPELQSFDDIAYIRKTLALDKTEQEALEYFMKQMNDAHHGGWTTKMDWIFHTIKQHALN
Sequence of Serine/threonine-protein kinase B-raf (Homo sapiens), P15056 [V600E] (P15056 whole entry V600E): as the sequence (P15056 whole entry) above, with V600E counted along it
Sequence of Phosphatidylinositol 4,5-bisphosphate 3-kinase catalytic subunit alpha isoform (Homo sapiens) (P42336 whole entry, canonical isoform): as the sequence (P42336 whole entry E542K, canonical isoform) above, with K542E counted along it

SMILES: Cc1cc(O)cc(-c2nn(C)cc2-c2cc(N3CC(O)C3)nc(-c3cccnc3)n2)c1
IC50 [1]: 86.5 nM

SMILES: Cc1cc(O)cc(-c2nn(C)cc2-c2cc(NCCCCO)nc(-c3cccnc3)n2)c1
IC50 [1]: 133 nM

SMILES: COc1cc(C)cc(-c2nn(C)cc2-c2cc(N3CC(O)C3)nc(-c3cccnc3)n2)c1
IC50 [1]: 108 nM

SMILES: Cc1cc(O)cc(-c2nn(C)cc2-c2cc(N3CCOCC3)nc(-c3cccnc3)n2)c1
Activity [2]: 9.2%
Activity [3]: 28%
Activity [4]: 18%
Activity [5]: 6.8%
Activity [6]: 2.6%
Activity [7]: 4%
Activity [8]: 31%
Activity [9]: 11%
Activity [10]: 4.4%
Activity [11]: 3.3%
Activity [12]: 25%
Activity [13]: 7.2%
Activity [14]: 13%
Activity [15]: 10%
Activity [16]: 9.6%
Activity [17]: 3%
Activity [18]: 17%
Activity [19]: 14%
Activity [20]: 15%
Activity [21]: 71%
Activity [22]: 92%
Activity [23]: 3%
Activity [24]: 51%
Activity [25]: 30%
Activity [26]: 31%
Activity [27]: 20%
Activity [28]: 18%
IC50 [1]: 13.6 nM
Activity [29]: 20%
Activity [30]: 4.2%

SMILES: Cc1cc(O)cc(-c2c(-c3cc(NCCCCO)nc(-c4cccnc4)n3)cnn2C)c1
IC50 [1]: 25.4 nM

SMILES: COc1cc(C)cc(-c2c(-c3cc(N4CC(O)C4)nc(-c4cccnc4)n3)cnn2C)c1
IC50 [1]: 74.2 nM

SMILES: Cc1cc(O)cc(-c2c(-c3cc(NC[C@H](C)O)nc(-c4cccnc4)n3)cnn2C)c1
IC50 [1]: 139 nM

SMILES: Cc1cc(O)cc(-c2c(-c3cc(N4CCOCC4)nc(-c4cccnc4)n3)cnn2C)c1
IC50 [1]: 91.5 nM

Continued by falling IC50 [1], values first:

IC50 [1]: 283 nM
SMILES: COc1cc(C)cc(-c2c(-c3cc(NC[C@H](C)O)nc(-c4cccnc4)n3)cnn2C)c1

IC50 [1]: 241 nM
SMILES: COc1cc(C)cc(-c2nn(C)cc2-c2cc(NC[C@H](C)O)nc(-c3cccnc3)n2)c1

IC50 [1]: 138 nM
SMILES: COc1cc(C)cc(-c2c(-c3cc(NCCCCO)nc(-c4cccnc4)n3)cnn2C)c1

IC50 [1]: 105 nM
SMILES: Cc1cc(O)cc(-c2nn(C)cc2-c2cc(NC[C@H](C)O)nc(-c3cccnc3)n2)c1

IC50 [1]: 104 nM
SMILES: COc1cc(C)cc(-c2c(-c3cc(N4CCOCC4)nc(-c4cccnc4)n3)cnn2C)c1

IC50 [1]: 63.8 nM
SMILES: COc1cc(C)cc(-c2nn(C)cc2-c2cc(NCCCCO)nc(-c3cccnc3)n2)c1

IC50 [1]: 59.1 nM
SMILES: COc1cc(C)cc(-c2nn(C)cc2-c2cc(N3CCOCC3)nc(-c3cccnc3)n2)c1

IC50 [1]: 56.6 nM
SMILES: Cc1cc(O)cc(-c2c(-c3cc(N4CC(O)C4)nc(-c4cccnc4)n3)cnn2C)c1
